Data taken from patent publication US10047059B2, “Substituted quinoxalines for inhibiting kinase activity” (NEUPHARMA, INC., priority 2012, dated 2018).

Tests used:
A375 cells = test: Inhibition of cancer cell growth, MTT or MTS assay, A375; assay type: cell-based; settings: Homo sapiens, A-375, 72 h incubation
Method: (§1) Inhibition of cell growth by compounds was measured using MTT or MTS assay. Tumor cell lines were purchased from ATCC (American Type Culture Collection, Manassas, Va.). All cell lines were maintained in RPMI 1640 (Hyclone) supplemented with 10% fetal bovine serum (FBS, Hyclone), glutamine (2 mM, Hyclone), and antibiotics (penicillin 100 U/mL and streptomycin 50 μg/mL) at 37° C. in a humidified atmosphere of 5% CO2 in air. Taxol (as a positive control, Sigma) and compounds were dissolved in DMSO (Sigma), and the final concentration of DMSO in the medium was 1%. Tumor cells were plated in 96-well plates at densities of about 2000 (A375) or 4000 (A549 and Colo205) cells/well of a 96-well plate and allowed to adhere/grow for 24 h. They were then treated with various concentrations of drug and incubated for 72 h. For MTT method, medium was then removed by inverting and tapping the plates. 100 μL of MTT (0.5 mg/ml) was added to each well followed by an incubated at 37° C. for 4 h. MTT was then removed and 200 μL of DMSO was added to each well, and the ODs at 570 nm were measured after a 5 second shaking cycle in a 96-well spectrophotometer. For MTS method, 20 μL MTS (CellTiter 96 Aqueous One Solution, Promega) was added to each well followed by an incubated at 37° C. for 2-4 h, solutions were then directly put in a 96-well spectrophotometer, and the ODs at 490 nm were measured.
(§2) All concentrations of compounds were tested in triplicate and controls were averaged over 4 wells. IC50 was calculated by plotting the concentration of compound vs the percentage of inhibition in treated wells using GraphPad Prism 5. […] The scale utilized in Tables 7-9 is as follows: +++ less than 1000 nM; ++ between 1000 nM and 5000 nM; and + greater than 5000 nM. The scale utilized in […]

BRAF V600E = biological target: T1, BRAF V600E (Homo sapiens, UniProt P15056, V600E); test: Z'-LYTE kinase inhibition assay against BRAF V600E; assay type: biochemical; settings: % inhibition at 1 μM, Z'-LYTE method
T1 construct: purchased Invitrogen
Method: Inhibitory activities Inhibitory activities of compounds against BRAF, and BRAF V600E were measured by Invitrogen using Z′-LYTE® Method as briefly described in the following. 4× Test compounds are dissolved in 1% DMSO. […] ATP solutions are diluted to a 4×ATP working concentration in Kinase Buffer (50 mM HEPES pH 7.5, 0.01% BRIJ-35, 10 mM MgCl2, 1 mM EGTA). Reaction started by 30-second shaking of mixture consisting of 2.5 μL 4× test compound, […] and 2.5 μL 4×ATP Solution on Bar-coded Corning, low volume NBS, black 384-well plate (Corning Cat. #3676). Then the mixture was incubated for 60-minute at room temperature for the kinase reaction, followed by addition of 5 μL of a 1:1024 dilution of development reagent A and 30-second plate shake. The mixture was then incubated for another 60-minute at room temperature for development reaction. Fluorescence was read by plate reader. IC50 was calculated by plotting the concentration of compound vs the percentage of inhibition in treated wells using GraphPad Prism 5.
Table 2 and 3 show % inhibition at 1 μM of several compounds of the invention against BRAF and BRAF V600E, respectively, using Z′-LYTE® method.
The scale utilized in Table 4 is as follows: +++ less than 100 nM; and ++ greater than 100 nM.

KDR (VEGFR2) = biological target: T2, KDR (VEGFR2) (Homo sapiens, UniProt P35968); test: Z'-LYTE kinase inhibition assay against KDR; assay type: biochemical; settings: % inhibition at 1 μM, Z'-LYTE method
T2 construct: purchased Invitrogen
Method: Inhibitory activities of compounds against KDR (VEGFR2) were also measured by Invitrogen using Z′-LYTE® Method as described above with the following modification. The 2×KDR (VEGFR2)/Tyr 01 mixture is prepared in 50 mM HEPES pH 7.5, 0.01% BRIJ-35, 10 mM MgCl2, 1 mM EGTA. The final 10 μL Kinase Reaction consists of 0.5-11.7 ng KDR (VEGFR2) and 2 μM Tyr 01 in 50 mM HEPES pH 7.5, 0.01% BRIJ-35, 10 mM MgCl2, 1 mM EGTA. After the 1 hour Kinase Reaction incubation, 5 μL of a 1:256 dilution of Development Reagent B is added.
The scale utilized in Table 6 is as follows: +++ less than 100 nM; and ++ greater than 100 nM

A549 cells = test: Inhibition of cancer cell growth, MTT or MTS assay, A549; assay type: cell-based; settings: Homo sapiens, 72 h incubation
Method: as §1, §2

T2 sequence (P35968 20-1356): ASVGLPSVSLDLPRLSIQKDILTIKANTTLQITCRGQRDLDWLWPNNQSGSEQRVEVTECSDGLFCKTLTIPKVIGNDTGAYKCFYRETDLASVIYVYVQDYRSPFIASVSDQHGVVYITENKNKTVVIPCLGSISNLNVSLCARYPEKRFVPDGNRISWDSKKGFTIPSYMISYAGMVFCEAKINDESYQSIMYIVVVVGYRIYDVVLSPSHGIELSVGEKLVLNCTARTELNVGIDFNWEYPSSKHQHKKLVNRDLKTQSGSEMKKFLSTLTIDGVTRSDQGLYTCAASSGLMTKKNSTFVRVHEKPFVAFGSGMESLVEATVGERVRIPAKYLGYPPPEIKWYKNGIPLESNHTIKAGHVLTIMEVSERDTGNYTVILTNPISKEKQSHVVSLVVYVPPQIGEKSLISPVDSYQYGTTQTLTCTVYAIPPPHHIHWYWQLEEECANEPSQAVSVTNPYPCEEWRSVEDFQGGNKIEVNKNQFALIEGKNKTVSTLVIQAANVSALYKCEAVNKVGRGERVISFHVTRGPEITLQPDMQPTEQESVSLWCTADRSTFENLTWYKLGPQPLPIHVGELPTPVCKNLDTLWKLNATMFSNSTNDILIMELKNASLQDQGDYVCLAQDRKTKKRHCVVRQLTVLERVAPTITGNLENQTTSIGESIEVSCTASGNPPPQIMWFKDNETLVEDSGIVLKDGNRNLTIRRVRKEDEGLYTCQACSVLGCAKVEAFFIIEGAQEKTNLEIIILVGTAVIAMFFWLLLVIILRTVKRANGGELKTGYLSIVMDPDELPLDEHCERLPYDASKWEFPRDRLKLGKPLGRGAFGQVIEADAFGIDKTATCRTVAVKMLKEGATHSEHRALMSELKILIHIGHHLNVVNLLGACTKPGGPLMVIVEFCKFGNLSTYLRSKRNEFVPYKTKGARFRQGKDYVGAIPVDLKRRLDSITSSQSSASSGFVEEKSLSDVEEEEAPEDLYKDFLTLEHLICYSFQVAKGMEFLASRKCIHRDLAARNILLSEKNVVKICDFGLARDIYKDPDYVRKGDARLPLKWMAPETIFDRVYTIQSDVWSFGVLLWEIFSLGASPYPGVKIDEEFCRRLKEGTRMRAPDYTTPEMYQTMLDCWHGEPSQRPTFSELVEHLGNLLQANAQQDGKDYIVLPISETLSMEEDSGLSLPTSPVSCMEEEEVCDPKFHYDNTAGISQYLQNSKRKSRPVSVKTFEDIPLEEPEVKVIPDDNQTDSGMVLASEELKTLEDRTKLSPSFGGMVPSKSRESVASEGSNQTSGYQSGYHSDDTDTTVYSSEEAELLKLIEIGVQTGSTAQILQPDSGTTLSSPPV
T1 sequence (P15056 whole entry V600E): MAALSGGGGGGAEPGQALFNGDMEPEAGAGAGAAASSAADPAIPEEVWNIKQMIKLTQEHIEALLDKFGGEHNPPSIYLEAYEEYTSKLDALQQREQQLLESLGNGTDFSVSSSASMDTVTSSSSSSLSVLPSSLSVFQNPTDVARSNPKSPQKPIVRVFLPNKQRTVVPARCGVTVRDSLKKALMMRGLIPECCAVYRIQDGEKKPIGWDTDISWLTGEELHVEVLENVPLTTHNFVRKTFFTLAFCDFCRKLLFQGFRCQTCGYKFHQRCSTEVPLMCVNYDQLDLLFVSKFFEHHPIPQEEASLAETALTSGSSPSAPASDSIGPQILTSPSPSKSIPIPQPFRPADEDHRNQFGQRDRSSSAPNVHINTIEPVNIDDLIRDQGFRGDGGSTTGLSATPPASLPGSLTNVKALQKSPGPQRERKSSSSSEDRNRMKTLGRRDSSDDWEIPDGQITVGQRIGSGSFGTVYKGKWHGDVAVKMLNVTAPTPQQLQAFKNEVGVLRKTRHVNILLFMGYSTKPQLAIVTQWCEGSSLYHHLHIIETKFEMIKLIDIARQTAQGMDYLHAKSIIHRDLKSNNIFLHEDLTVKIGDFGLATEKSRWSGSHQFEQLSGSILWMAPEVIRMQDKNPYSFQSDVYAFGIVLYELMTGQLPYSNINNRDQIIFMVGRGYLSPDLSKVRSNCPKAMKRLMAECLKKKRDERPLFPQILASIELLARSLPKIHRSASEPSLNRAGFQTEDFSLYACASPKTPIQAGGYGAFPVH

O=C(Nc1ccc(C(=O)c2ccc3ncc(N4CCOCC4)nc3c2)c(F)c1)c1cccc(Cl)c1 [Compound C37, 3-chloro-N-(3-fluoro-4-(3-morpholinoquinoxaline-6-carbonyl)phenyl)benzamide]
IC50 (A375 cells): > 5 µM

O=C(Nc1ccc(C(=O)c2ccc3ncc(N4CCOCC4)nc3c2)c(F)c1)c1cccc(F)c1 [Compound C34, 3-fluoro-N-(3-fluoro-4-(3-morpholinoquinoxaline-6-carbonyl)phenyl)benzamide]
IC50 (A375 cells): > 5 µM

O=C(Nc1ccc(C(=O)c2ccc3ncc(C4CCNCC4)nc3c2)cc1)Nc1cccc(C(F)(F)F)c1 [Compound C27, 1-(4-(3-(piperidin-4-yl)quinoxaline-6-carbonyl)phenyl)-3-(3-(trifluoromethyl)phenyl)urea]
inhibition at 1 µM (BRAF V600E): 70 to 89%
inhibition at 1 µM (KDR (VEGFR2)): < 70%
IC50 (A375 cells): > 5 µM
IC50 (A549 cells): > 5 µM

N#Cc1ccc(NC(=O)Nc2ccc(C(=O)c3ccc4ncc(N5CCOCC5)nc4c3)c(F)c2)cc1C(F)(F)F [Compound C18, 1-(4-cyano-3-(trifluoromethyl)phenyl)-3-(3-fluoro-4-(3-morpholinoquinoxaline-6-carbonyl)phenyl)urea]
inhibition at 1 µM (BRAF V600E): 70 to 89%
inhibition at 1 µM (KDR (VEGFR2)): 70 to 89%
IC50 (A375 cells): 1 to 5 µM
IC50 (A549 cells): 1 to 5 µM

O=C(Nc1ccc(C(=O)c2ccc3ncc(N4CCOCC4)nc3c2)c(F)c1)c1ccc(Cl)cc1 [Compound C35, 4-chloro-N-(3-fluoro-4-(3-morpholinoquinoxaline-6-carbonyl)phenyl)benzamide]
IC50 (A375 cells): > 5 µM

Cn1cc(NC(=O)Nc2ccc(C(=O)c3ccc4ncc(N5CCNCC5)nc4c3)c(F)c2)cn1 [Compound C32, 1-(3-fluoro-4-(3-(piperazin-1-yl)quinoxaline-6-carbonyl)phenyl)-3-(1-methyl-1H-pyrazol-4-yl)urea]
inhibition at 1 µM (BRAF V600E): 70 to 89%
inhibition at 1 µM (KDR (VEGFR2)): < 70%

O=C(Nc1ccc(C(=O)c2ccc3ncc(N4CCOCC4)nc3c2)c(F)c1)c1ccc(Cl)c(C(F)(F)F)c1 [Compound C36, 4-chloro-N-(3-fluoro-4-(3-morpholinoquinoxaline-6-carbonyl)phenyl)-3-(trifluoromethyl)benzamide]
IC50 (A375 cells): > 5 µM

O=C(Nc1ccc(C(=O)c2ccc3ncc(N4CCOCC4)nc3c2)c(F)c1)c1cccc(C(F)(F)F)c1 [Compound C38, N-(3-fluoro-4-(3-morpholinoquinoxaline-6-carbonyl)phenyl)-3-(trifluoromethyl)benzamide]
IC50 (A375 cells): 1 to 5 µM

O=C(Nc1ccc(C(=O)c2ccc3ncc(N4CCNCC4)nc3c2)c(F)c1)c1ccc(Cl)c(C(F)(F)F)c1 [Compound C43, 4-chloro-N-(3-fluoro-4-(3-(piperazin-1-yl)quinoxaline-6-carbonyl)phenyl)-3-(trifluoromethyl)benzamide]
IC50 (A375 cells): < 1 µM

N#Cc1ccc(NC(=O)Nc2ccc(C(=O)c3ccc4ncc(N5CCOCC5)nc4c3)cc2)cc1C(F)(F)F [Compound C15, 1-(4-cyano-3-(trifluoromethyl)phenyl)-3-(4-(3-morpholinoquinoxaline-6-carbonyl)phenyl)urea]
inhibition at 1 µM (BRAF V600E): < 70%
inhibition at 1 µM (KDR (VEGFR2)): 70 to 89%
IC50 (A375 cells): 1 to 5 µM
IC50 (A549 cells): 1 to 5 µM

O=C(Nc1ccc(C(=O)c2ccc3ncc(N4CCNCC4)nc3c2)c(F)c1)c1ccc(Cl)cc1 [Compound C40, 4-chloro-N-(3-fluoro-4-(3-(piperazin-1-yl)quinoxaline-6-carbonyl)phenyl)benzamide]
IC50 (A375 cells): 1 to 5 µM

O=C(Nc1ccc(C(=O)c2ccc3ncc(N4CCOCC4)nc3c2)cc1)Nc1ccc(Cl)c(C(F)(F)F)c1 [Compound C07, 1-(4-chloro-3-(trifluoromethyl)phenyl)-3-(4-(3-morpholinoquinoxaline-6-carbonyl)phenyl)urea]
inhibition at 1 µM (BRAF V600E): < 70%
inhibition at 1 µM (KDR (VEGFR2)): 70 to 89%
IC50 (A375 cells): 1 to 5 µM
IC50 (A549 cells): 1 to 5 µM

O=C(Nc1ccc(C(=O)c2ccc3ncc(N4CCNCC4)nc3c2)c(F)c1)c1cccc(F)c1 [Compound C39, 3-fluoro-N-(3-fluoro-4-(3-(piperazin-1-yl)quinoxaline-6-carbonyl)phenyl)benzamide]
IC50 (A375 cells): 1 to 5 µM

Cn1ccc(NC(=O)Nc2ccc(C(=O)c3ccc4ncc(N5CCNCC5)nc4c3)c(F)c2)n1 [Compound C31, 1-(3-fluoro-4-(3-(piperazin-1-yl)quinoxaline-6-carbonyl)phenyl)-3-(1-methyl-1H-pyrazol-3-yl)urea]
inhibition at 1 µM (BRAF V600E): 70 to 89%
inhibition at 1 µM (KDR (VEGFR2)): < 70%
IC50 (A375 cells): 1 to 5 µM
IC50 (A549 cells): > 5 µM

O=C(Nc1ccc(C(=O)c2ccc3ncc(N4CCOCC4)nc3c2)c(F)c1)Nc1ccc(Cl)c(C(F)(F)F)c1 [Compound C25]
inhibition at 1 µM (BRAF V600E): < 70%
inhibition at 1 µM (KDR (VEGFR2)): < 70%
IC50 (A549 cells): 1 to 5 µM

N#Cc1cnc2ccc(C(=O)c3ccc(NC(=O)Nc4ccc(Cl)c(C(F)(F)F)c4)cc3F)cc2n1 [Compound C30, 1-(4-chloro-3-(trifluoromethyl)phenyl)-3-(4-(3-cyanoquinoxaline-6-carbonyl)-3-fluorophenyl)urea]
inhibition at 1 µM (BRAF V600E): < 70%
inhibition at 1 µM (KDR (VEGFR2)): < 70%
IC50 (A549 cells): > 5 µM

O=C(Nc1ccc(C(=O)c2ccc3ncc(N4CCOCC4)nc3c2)cc1)Nc1ccc(F)c(C(F)(F)F)c1 [Compound C06, 1-(4-fluoro-3-(trifluoromethyl)phenyl)-3-(4-(3-morpholinoquinoxaline-6-carbonyl)phenyl)urea]
inhibition at 1 µM (BRAF V600E): < 70%
inhibition at 1 µM (KDR (VEGFR2)): 70 to 89%
IC50 (A375 cells): 1 to 5 µM
IC50 (A549 cells): 1 to 5 µM

O=C(Nc1ccc(C(=O)c2ccc3ncc(N4CCNCC4)nc3c2)c(F)c1)c1cccc(Cl)c1 [Compound C41, 3-chloro-N-(3-fluoro-4-(3-(piperazin-1-yl)quinoxaline-6-carbonyl)phenyl)benzamide]
IC50 (A375 cells): < 1 µM

O=C(Nc1ccc(C(=O)c2ccc3ncc(N4CCNCC4)nc3c2)c(F)c1)c1cccc(C(F)(F)F)c1 [Compound C42, N-(3-fluoro-4-(3-(piperazin-1-yl)quinoxaline-6-carbonyl)phenyl)-3-(trifluoromethyl)benzamide]
IC50 (A375 cells): 1 to 5 µM

Cc1cc(NC(=O)Nc2ccc(C(=O)c3ccc4ncc(N5CCNCC5)nc4c3)c(F)c2)no1 [Compound C33, 1-(3-fluoro-4-(3-(piperazin-1-yl)quinoxaline-6-carbonyl)phenyl)-3-(5-methylisoxazol-3-yl)urea]
inhibition at 1 µM (BRAF V600E): > 89%
inhibition at 1 µM (KDR (VEGFR2)): < 70%
IC50 (A375 cells): 1 to 5 µM

O=C(Nc1ccc(F)cc1)Nc1ccc(C(=O)c2ccc3ncc(N4CCOCC4)nc3c2)c(F)c1 [Compound C23, 1-(3-fluoro-4-(3-morpholinoquinoxaline-6-carbonyl)phenyl)-3-(4-fluorophenyl)urea]
inhibition at 1 µM (BRAF V600E): 70 to 89%
inhibition at 1 µM (KDR (VEGFR2)): < 70%
IC50 (A549 cells): > 5 µM

O=C(Nc1cccc(F)c1)Nc1ccc(C(=O)c2ccc3ncc(N4CCOCC4)nc3c2)c(F)c1 [Compound C22, 1-(3-fluoro-4-(3-morpholinoquinoxaline-6-carbonyl)phenyl)-3-(3-fluorophenyl)urea]
inhibition at 1 µM (BRAF V600E): < 70%
inhibition at 1 µM (KDR (VEGFR2)): < 70%
IC50 (A549 cells): > 5 µM
